Test results reported in article PMC5701182, “The Aβ oligomer eliminating D-enantiomeric peptide RD2 improves cognition without changing plaque pathology” (Scientific Reports, 2017).
pIC50: −log10 of the molar value. Non-standard residues stand in square brackets, D forms with d. Residues, ends and D or L forms follow the SMILES beside them.

Columns and labels:
APP/PS1 mice [1] = assay: Body weight and general health during intraperitoneal minipump treatment; type: in vivo, mouse; conditions: female APP/PS1 mice, 5.3 mg/kg/day RD2 i.p. by Alzet minipump
Procedure: For this study, 21 APP/PS1 double transgenic mice (APPSwedish/PS1ΔE9)[36] were used. The very well characterized APP/PS1 mouse model develops cognition deficits and abundant Aβ deposits already at early age. The original mice were purchased from JAX (The Jackson Laboratory, USA) and maintained in our own colony at the University of Alabama in Birmingham. Before treatment, the mice were housed in a controlled environment (humidity 50–60%, temperature 22 °C, light from 06:00 a.m. to 6:00 p.m.) with 4 animals per cage in our facility with food and water available ad libitum. After the implantation of the Alzet minipumps the mice were housed individually.
In this study, we treated seven months old female APP/PS1 mice intraperitoneally by use of Alzet osmotic minipumps (Alzet osmotic mini pumps, model #1004, Alzet, USA). Mice were either treated with 5.3 mg/kg/day RD2 (n = 11) or placebo (0.9% sodium chloride solution) (n = 10) as control group. The Alzet minipumps were soaked in sterile 0.9% sodium chloride solution for 24 h before implantation. The next day, the pumps were filled with the appropriate solution and implanted intraperitoneally. In short, mice were anesthetised with isoflurane, the skin and the muscle layer below were cut in the midline and the pump was inserted in the abdominal cavity. Following placement of the pump, the wound was sutured. […]

[2] = target: T1, Aβ(1-42) fibril formation (Homo sapiens, UniProt P05067); assay: Thioflavin T (ThT) fibril formation assay; type: biochemical; conditions: 20 µM Aβ(1-42), 5 µM ThT, RD2 80-1.25 µM, 21 h, 37 °C; logistic fit; three replicates; read-out: IC50 of inhibition of Aβ(1-42) fibril formation
T1 construct: Synthetic and recombinant Aβ(1-42) with >95% purity was purchased as lyophilized powder; purchased Bachem (Germany) (synthetic) / Isoloid (Germany) (recombinant)
T1 sequence (P05067 672-713 limits assumed): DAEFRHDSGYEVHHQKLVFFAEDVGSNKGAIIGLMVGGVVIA
Procedure: The Thioflavin T (ThT) assay is a commonly used assay to visualize and quantify the fibrilisation of Aβ, since this dye binds to amyloidogenic cross-β-sheet structures. While Aβ aggregates into fibrils, the ThT fluorescence intensities increase until a saturation level is accomplished. Within this test, we analysed the inhibitory function of RD2 on the Aβ(1-42) fibril formation. 20 µM Aβ(1-42) was incubated with 5 µM ThT and different concentrations of RD2 (serial dilution from 80 µM till 1.25 µM) for IC50 calculation. ThT fluorescence was monitored over 21 h every 5 min at λex = 440 nm and λem = 490 nm in a fluorescence plate reader (Polarstar Optima, Germany) at 37 °C. Correction was done using all supplements without Aβ. For data evaluation, the fibril masses were determined by subtracting the baseline fluorescence intensities from the top and normalised to the Aβ control to calculate the inhibition in percent. The IC50 resulted from the compound concentration at the inflection point obtained by a logistic fit of the data (OriginPro 8.5 G, OriginLab, USA).

Aβ(1-42) oligomers = target: T2, Aβ(1-42) oligomers (Homo sapiens, UniProt P05067); assay: QIAD assay (quantitative determination of interference with Aβ aggregate size distribution); type: biochemical
T2 construct: Synthetic and recombinant Aβ(1-42) with >95% purity was purchased as lyophilized powder; purchased Bachem (Germany) (synthetic) / Isoloid (Germany) (recombinant)
T2 sequence (P05067 672-713 limits assumed): as above
Procedure: For the evaluation of Aβ oligomer elimination of RD2, a QIAD assay (quantitative determination of interference with Aβ aggregate size distribution) was performed according to Brener et al.[23]. Briefly, 80 µM Aβ(1-42) was pre-incubated for 4.5 h to enrich Aβ oligomers. Then either RD2 or D3 were added to the pre-incubated solution with the resulting concentration of 20 µM RD2 or D3 and co-incubated for further 40 min. The samples were loaded on top of a density gradient containing 5 to 50% (w/v) iodixanol (OptiPrep, Axis-Shield, Norway) and centrifuged for 3 h at 4 °C and 259.000 × g (Optima TL-100, Beckman Coulter, USA). After centrifugation, 14 fractions à 140 μl were harvested by upward displacement. Fraction 1 from the top of the gradient was the least dense fraction while fraction 14 from just above the bottom was the densest fraction. The pellet of each tube was mixed with 60 µl of a 6 M guanidine hydrochloride solution and boiled for 10 min. The resulting solution represents fraction 15. All fractions were analysed with respect to their Aβ(1-42) content by analytical RP-HPLC (reversed phase-high performance liquid chromatography) and UV absorbance detection at 214 nm. The data for the D3 values and the Aβ(1-42) controls without compounds were already previously used in Brener et al.[23]. Analyses were done at least in quadruplicates (D3 and RD2 n = 4, Aβ(1-42) n = 11). […]

APP/PS1 mice [3] = assay: Morris water maze; type: in vivo, mouse; conditions: 5.3 mg/kg/day RD2 i.p., placebo 19.0 ± 1 cm/s
Procedure: (§1) In this study, we treated seven months old female APP/PS1 mice intraperitoneally by use of Alzet osmotic minipumps (Alzet osmotic mini pumps, model #1004, Alzet, USA). Mice were either treated with 5.3 mg/kg/day RD2 (n = 11) or placebo (0.9% sodium chloride solution) (n = 10) as control group. The Alzet minipumps were soaked in sterile 0.9% sodium chloride solution for 24 h before implantation. The next day, the pumps were filled with the appropriate solution and implanted intraperitoneally. In short, mice were anesthetised with isoflurane, the skin and the muscle layer below were cut in the midline and the pump was inserted in the abdominal cavity. Following placement of the pump, the wound was sutured. Three weeks after the implantations, the mice were tested in different behavioural set ups. 28 days after the implantations, the mice were sacrificed for histopathological analysis. All mice of both groups were included in the experiments described below.
The mice were tested daily for one week in a water maze. Our version of the Morris water maze consists of a blue circular tank (120 cm diameter) filled with clear water (22 °C ± 1 °C). […] Mice were recorded with a camera driven tracker system (Ethovision XT10, Noldus, The Netherlands). It was analysed the time the mice needed to escape to the hidden platform (escape latency) and the time they spent in the target quadrant (probe trial).

SH-SY5Y cells = assay: MTT cell viability assay, SH-SY5Y cells; type: cell-based, human; conditions: 5 µM RD2 without Aβ, one-way ANOVA n.s., p = 0.4
Procedure: (§2) MTT (3-(4,5-Dimethylthiazol-2-yl)-2,5-diphenyl-tetrazolium bromide) based cell viability assays were accomplished to examine the cytotoxicity of Aβ(1-42) in the presence of RD2 on two different cell lines, PC-12 (rat pheochromocytoma cell line), and SH-SY5Y (human neuroblastoma cell line) cells.
(§3) PC-12 cells (DSMZ, Germany) were cultured in DMEM medium supplemented with 10% fetal calf serum, 1% antibiotics (Penicillin/Streptomycin) (all Sigma-Aldrich, USA), and 5% horse serum (PAA Laboratories GmbH, Germany) on collagen A-coated (Biochrom GmbH, Germany) tissue culture flasks (SPL Life Sciences Co., Korea). SH-SY5Y cells (DSMZ, Germany) were cultured in DMEM medium supplemented with 20% fetal calf serum and 1% antibiotics (Penicillin/Streptomycin) (all Sigma-Aldrich, USA) on tissue culture flasks (SPL Life Sciences Co., Korea). Cells were allowed to grow in a humidified incubator with 5% CO2 at 37 °C and a maximum of 12 (PC-12 cells) or 21 (SH-SY5Y cells) passages. Medium was changed every two days and cells were passaged every three to five days, according to their confluence.
(§4) MTT test was performed according to the manufacturer’s protocol (CellProliferation Kit I; Roche, Switzerland). […] The arithmetic mean of all measurements per approach was calculated. Results are represented as the percentage of MTT reduction, assuming that the absorbance of control cells was 100%.

PC-12 cells = assay: MTT cell viability assay, PC-12 cells; type: cell-based, rat; conditions: 5 µM RD2 without Aβ, one-way ANOVA n.s., p = 0.4
Procedure: as §2, §3, §4

APP/PS1 mice [4] = assay: Zero maze; type: in vivo, mouse; conditions: APP/PS1 mice after three weeks of 5.3 mg/kg/day RD2 i.p., mean ± SEM, placebo 5.0 ± 0.6
Procedure: as §1
Similar to the open field test, the zero maze was used to assess the anxiety behaviour of the mice. The maze consisted of a circular arena (65 cm diameter) that is raised 40 cm above the table. The maze was separated into four equal parts, with two parts with 15 cm high walls of opaque material and two only 0.5 cm high walls. […] Analysed was the time mice spent in the open and closed arms. […]

[5] = previous pharmacokinetic studies of D3 and RD2; cited from earlier work
Description: Nowadays, the inhibition of the formation of Aβ oligomers and the elimination of already present Aβ oligomers is thought to be one of the most promising strategies to modify disease progression according to the modified amyloid cascade hypothesis. Currently registered drugs can only ameliorate symptoms and cannot slow down disease progression. Previously, we have reported about a D-enantiomeric peptide, named “D3”, which was identified by mirror image phage display and solely consists of D-enantiomeric amino acid residues[21],[22]. D3 inhibits the formation of regular Aβ fibrils, eliminates di ...

APP/PS1 mice [6] = assay: Open field test; type: in vivo, mouse; conditions: APP/PS1 mice after three weeks of 5.3 mg/kg/day RD2 i.p.
Procedure: as §1
The open field test was performed to evaluate the activity and anxiety behaviour of the mice. The arena (42 cm × 42 cm surrounded with clear Plexiglass sides (20 cm high)) was subdivided into two areas: border and centre. […] Time spent in both areas was analysed. After each testing day and in between the mice, the apparatus was wiped out with chlorhexidine and 70% ethanol and allowed to air-dry.

pIC50 [2]: 5.11
reduction of the amount of Aβ oligomers in fractions 4 to 6 (Aβ(1-42) oligomers; 20 µM RD2 added to 80 µM Aβ(1-42) pre-incubated 4.5 h, co-incubated 40 min, density gradient centrifugation, RP-HPLC UV 214 nm, n = 4): 71%
pIC50 (Aβ(1-42) oligomers; QIAD with pooled fractions 4 to 6, 1-40 µM RD2 on 80 µM Aβ(1-42), logistic fit, n = 3, read-out: IC50 of Aβ(1-42) oligomer elimination): 5.08
swimming speed in the Morris water maze (APP/PS1 mice [3]): 18.8 ± 1 cm/s
average speed of movement in the zero maze (APP/PS1 mice [4]): 4.8 ± 0.4 cm/s
speed in the open field (APP/PS1 mice [6]; mean ± SEM, placebo 8.9 ± 0.9 cm/s, SEM): 8.8 ± 0.7 cm/s
SMILES: CC(C)C[C@@H](NC(=O)[C@H](NC(=O)[C@H]1CCCN1)[C@H](C)O)C(=O)N[C@H](Cc1c[nH]cn1)C(=O)N[C@@H](C(=O)N[C@H](Cc1c[nH]cn1)C(=O)N[C@H](CC(N)=O)C(=O)N[C@H](CCCNC(=N)N)C(=O)N[C@H](CCCNC(=N)N)C(=O)N[C@H](CCCNC(=N)N)C(=O)N[C@H](CCCNC(=N)N)C(=O)N[C@H](CCCNC(=N)N)C(N)=O)[C@H](C)O [RD2] (H-[dP][dT][dL][dH][dT][dH][dN][dR][dR][dR][dR][dR]-NH2)
physiological parameters, general health and discomfort (APP/PS1 mice [1]; 28 days): neither changed any obvious physiological parameters
body weight (APP/PS1 mice [1]; n = 11, placebo 25.7 ± 0.9 g, mean ± SEM, SEM): 26.8 ± 0.8 g
cell viability with RD2 alone compared to buffer control (SH-SY5Y cells): did not result in any change of cell viability
cell viability with RD2 alone compared to buffer control (PC-12 cells): did not result in any change of cell viability
bioavailability of RD2 compared to D3 [5]: higher bioavailability
activity or anxiety levels versus placebo (APP/PS1 mice [6]; open field and zero maze tests): no significant differences in activity or anxiety levels
